Experimental data from patent US8383582B2, “Inhibitor against forming biofilm comprising κ-casein macropeptide” (Industry Foundation of Chonnam National University, priority 2010, dated 2013).

Legend:
Assay type in all cases: cell-based, Listeria monocytogenes
[1] = system: L. monocytogenes Scott A to AGS cell; experiment: Invasion analysis (gentamicin-based) on AGS cells; details: CMP 0.4 mg/ml, at the lower MOI, 1.5 h 37° C.
From the text: (§1) The human intestinal epithelial cell line HT-29 and the human gastric epithelial cell line AGS were purchased from the Korea Cell Line Bank (KCLB; Seoul, Korea). HT-29 cells have been extensively used as a model system for studying interaction of enteric pathogens with intestinal epithelial cells. All media and fetal bovine serum (FBS) were obtained from Gibco BRL (Life Technologies Inc., Grand Island, N.Y., USA) and JBI (Jeil Biotech services Inc., Seoul, Korea). The HT-29 and AGS cells were grown in RPMI-1640 medium which was supplemented with 10% heat-inactivated FBS. The cells were routinely cultured at 37° C. in 5% CO2 incubator with 6-well or 12-well tissue culture plates for adhesion and invasion assays and in 100-mm-diameter tissue culture plates for RNA isolation.
The invasion of epithelial cells by L. monocytogenes Scott A was studied using the gentamicin-based assay described by Bunduki et al. (1993) and Gaillard et al. (1987) with modifications. Briefly, the HT-29 and the AGS cells monolayers (10^6 cells) were inoculated with 100 μl of the L. monocytogenes Scott A suspension (10^8 and 10^6 CFU/ml) and incubated for 1.5 h at 37° C. in the absence or presence of 0.4 mg/ml CMP, respectively. The monolayers were washed with PBS, followed by the addition of 250 μl of 1 mg/ml gentamicin (Sigma) and incubation for an additional 1.5 h. […]

L. monocytogenes Scott A = experiment: Light microscopy of biofilm on PVC microtiter plates and glass tube; details: MWB 24 h, CMP 0.4 mg/ml
From the text: The quantification of biofilm production on plastic microtiter plates and glass tubes was based on a previously described method (Djordjevic et al., 2002). As abiotic surfaces for biofilm formation, 96-well polyvinyl chloride (PVC) microplates (BD Biosciences, San Jose, Calif., USA) and Pyrex glass tube (10 mm by 20 mm) were used. Overnight cultures of 12 strains of L. monocytogenes were twice washed with PBS and inoculated at 10^6 CFU/ml in modified Welshimer's broth (MWB) supplemented different concentrations of CMP (Davisco Foods International, Inc., MN, USA; 0.1, 0.2, and 0.4 mg/ml or 1.0, 2.0, and 4.0 mg/ml). After incubation at 30° C. without agitation for 24 and 48 h, the microplates were twice rinsed thoroughly with double-distilled water, and a 0.1% (w/v) solution of crystal violet (CV) was added to stain the attached cells. […] The absorbance at 595 nm of the solubilized dye was subsequently determined by using an enzyme-linked immunosorbent assay (ELISA) plate reader (Molecular Devices, Sunnyvale, Calif., USA). […]
In addition, biofilm formations on PVC microtiter plates and glass tube by L. monocytogenes incubated in MWB for 24 h in the presence or absence of CMP (0.4 mg/ml) were analyzed using light microscopy and microscopic analyses were illustrated in FIGS. 3 and 4, respectively.

[2] = system: virulence-associated genes of L. monocytogenes; experiment: Semi-quantitative RT-PCR of virulence-associated genes; details: 0.4 mg/ml CMP; L. monocytogenes Scott A infected HT-29 cells
Protocol: The regulation of virulence-associated genes was investigated by using semi-quantitative RT-PCR techniques. Total RNA was isolated from the each treated samples using a RNeasy™ Total RNA Kit (Qiagen) with manufacturer's manuals. One μg total RNA was reverse transcribed in 20 μl reaction mixtures with SuperScript™ III First-Strand cDNA Synthesis Kit (Invitrogen, Carlsbad, Calif.). Then, cDNA were then amplified by using Taq DNA polymerase (TaKaRa, Japan). For the iap, denaturation for 5 min at 94° C. was followed by 40 cycles composed of 30 s denaturation at 94° C., 45 s annealing at 60° C. (TABLE 4), and 1 min elongation at 72° C. Except for the iap, denaturation for 5 min at 94° C. was followed by 35 cycles composed of 1 min denaturation at 94° C., 2 min annealing at 60° C. (TABLE 4), and 1 min elongation at 72° C. The last cycle was followed by 10 min final elongation at 72° C. Oligonucleotide (Bioneer, Daejun, Korea) sequences used for the amplification of each gene fragments including expression of proteins (HT-29) are shown in TABLE 4 (Haller et al., 2000). The RT-PCR products were electrophoresed in a 1.5% agarose gel and visualized by ethidium bromide (EtBr) staining. The intensity of each band was determined by densitometric analysis of gels using Kodak DC290 zoom digital camera and Kodak 1D image analysis software (Eastman Kodak Company, Rochester, N.Y., USA).

[3] = system: L. monocytogenes Scott A to AGS cell; experiment: Adhesion analysis on AGS cells; details: CMP 0.4 mg/ml, at the lower MOI, 30 min 37° C.
From the text: as §1
Prior to the adhesion assay, the HT-29 and the AGS cells monolayers were washed three times in pre-warm PBS (25° C.) to remove any culture medium and non-attached cells. The adhesion assays were performed using L. monocytogenes Scott A according to the method of Hagman et al. (1999) with modifications. Bacteria were grown overnight at 37° C. in TSBYE. […]

For κ-casein macropeptide [CMP], the “invasion of L. monocytogenes Scott A” value [1] was “prevented”, the “attached cells (light microscopy)” value (L. monocytogenes Scott A) was “only a small number of L. monocytogenes Scott A cells had attached” and the “mRNA level of hlyA” value [2] was “significantly repressed”. For the same substance, the “mRNA level of iap” value [2] was “significantly repressed”, the “mRNA level of inlA” value [2] was “significantly repressed” and the “mRNA level of plcB” value [2] was “significantly repressed”. For the same substance, the “adhesion of L. monocytogenes Scott A” value [3] was “prevented”.
